The values below come from ChEMBL document CHEMBL3632475, “Design, Synthesis, and Pharmacological Evaluation of 5,6-Disubstituted Pyridin-2(1H)-one Derivatives as Phosphodiesterase 10A (PDE10A) Antagonists” (J Med Chem, 2015).

Data set [1] has as its system Rattus norvegicus. The data set can be described thus: Cmax in Sprague Dawley rat assessed as 6-Phenyl-5-[4-(qumolm-2-ylmethoxy)phenyl]pyridm-2(1H)-one at 11.04 mg/kg, po measured up to 8 hrs. Also noted: dose 11.04 mg/kg, route oral. To be noted: in vivo. Type of data set: ADME, organism-based.
The test system of data set [2] is Rattus norvegicus. The data set can be described thus: AUC (0 to t) in Sprague Dawley rat assessed as 6-Phenyl-5-[4-(qumolm-2-ylmethoxy)phenyl]pyridm-2(1H)-one at 11.04 mg/kg, po measured up to 8 hrs. Format: ADME, organism-based. Set-up: time < 8 hr, dose 11.04 mg/kg, route oral. To be noted: in vivo.
For data set [3], the system named is Rattus norvegicus. In words: Tmax in Sprague Dawley rat assessed as 6-Phenyl-5-[4-(qumolm-2-ylmethoxy)phenyl]pyridm-2(1H)-one at 11.04 mg/kg, po measured up to 8 hrs. The following applies: in vivo. Type of data set: ADME, organism-based.
For data set [4], the system named is Rattus norvegicus. The data set can be described thus: AUC (0 to 24 hrs) in Sprague Dawley rat assessed as 6-(4-Fluorophenyl)-5-[4-quinolin-2-ylmethoxy)phenyl]-pyridine-2(1H)-one at […], iv. Format: ADME, organism-based. Also noted: dose 1.1 mg/kg, time < 24 hr, route intravenous. To be noted: in vivo.
The subject of data set [5] is Canis familiaris. The data set can be described thus: AUC (0 to 24 hrs) in Beagle dog assessed as 6-(4-Fluorophenyl)-5-[4-quinolin-2-ylmethoxy)phenyl]-pyridine-2(1H)-one at […], iv. Type of data set: ADME, organism-based, Canis lupus familiaris. Also noted: time < 24 hr, dose 1.1 mg/kg, route intravenous. The following applies: in vivo.
In data set [6] the test system is Canis familiaris. In words: AUC (0 to 24 hrs) in Beagle dog assessed as 6-(4-Fluorophenyl)-5-[4-quinolin-2-ylmethoxy)phenyl]-pyridine-2(1H)-one at 11.04 mg/kg, po. Also noted: dose 11.04 mg/kg, time < 24 hr, route oral. Format: ADME, organism-based, Canis lupus familiaris. The following applies: in vivo.
The subject of data set [7] is Cynomolgus monkey. In words: Tmax in cynomolgus monkey assessed as 6-(4-Fluorophenyl)-5-[4-quinolin-2-ylmethoxy)phenyl]-pyridine-2(1H)-one at 11.04 mg/kg, po. Type of data set: ADME, organism-based, Macaca fascicularis. The following applies: in vivo.
For data set [8], the system named is Cynomolgus monkey. In words: AUC (0 to 24 hrs) in cynomolgus monkey assessed as 6-(4-Fluorophenyl)-5-[4-quinolin-2-ylmethoxy)phenyl]-pyridine-2(1H)-one at […], iv. Type of data set: ADME, organism-based, Macaca fascicularis. Set-up: time < 24 hr, dose 1.1 mg/kg, route intravenous. The following applies: in vivo.
Data set [9] deals with Canis familiaris. In words: Cmax in Beagle dog assessed as 6-(4-Fluorophenyl)-5-[4-quinolin-2-ylmethoxy)phenyl]-pyridine-2(1H)-one at 11.04 mg/kg, po. Type of data set: ADME, organism-based, Canis lupus familiaris. Also noted: dose 11.04 mg/kg, route oral. The following applies: in vivo.
For data set [10], the system named is Canis familiaris. The data set can be described thus: Tmax in Beagle dog assessed as 6-(4-Fluorophenyl)-5-[4-quinolin-2-ylmethoxy)phenyl]-pyridine-2(1H)-one at 11.04 mg/kg, po. The following applies: in vivo. Format: ADME, organism-based, Canis lupus familiaris.
In data set [11] the test system is Rattus norvegicus. In words: Cmax in Sprague Dawley rat assessed as 6-(4-Fluorophenyl)-5-[4-quinolin-2-ylmethoxy)phenyl]-pyridine-2(1H)-one at 11.04 mg/kg, po measured up to 8 hrs. Format: ADME, organism-based. Set-up: dose 11.04 mg/kg, route oral. To be noted: in vivo.
Data set [12] relates to Rattus norvegicus. In words: AUC (0 to t) in Sprague Dawley rat assessed as 6-(4-Fluorophenyl)-5-[4-quinolin-2-ylmethoxy)phenyl]-pyridine-2(1H)-one at 11.04 mg/kg, po measured after 8hrs. Format: ADME, organism-based. The following applies: in vivo.
In data set [13] the test system is Rattus norvegicus. The data set can be described thus: Tmax in Sprague Dawley rat assessed as 6-(4-Fluorophenyl)-5-[4-quinolin-2-ylmethoxy)phenyl]-pyridine-2(1H)-one at 11.04 mg/kg, po measured after 8hrs. Type of data set: ADME, organism-based. The following applies: in vivo.
The test system of data set [14] is Cynomolgus monkey. The data set can be described thus: Cmax in cynomolgus monkey assessed as 6-(4-Fluorophenyl)-5-[4-quinolin-2-ylmethoxy)phenyl]-pyridine-2(1H)-one at 11.04 mg/kg, po. Format: ADME, organism-based, Macaca fascicularis. Set-up: dose 11.04 mg/kg, route oral. To be noted: in vivo.
The test system of data set [15] is Cynomolgus monkey. In words: AUC (0 to 24 hrs) in cynomolgus monkey assessed as 6-(4-Fluorophenyl)-5-[4-quinolin-2-ylmethoxy)phenyl]-pyridine-2(1H)-one at 11.04 mg/kg, po. The following applies: in vivo. Type of data set: ADME, organism-based, Macaca fascicularis. Also noted: time < 24 hr, dose 11.04 mg/kg, route oral.
For data set [16], the system named is Rattus norvegicus. In words: Tmax in Sprague Dawley rat assessed as 6-(2,4-Difluorophenyl)-5-[4-(quinolin-2-ylmethoxy)phenyl]-pyridin-2(1H)-one at 11.04 mg/kg, po measured up to 8 hrs. Format: ADME, organism-based. The following applies: in vivo.
In data set [17] the test system is Rattus norvegicus. In words: AUC (0 to t) in Sprague Dawley rat assessed as 6-(2,4-Difluorophenyl)-5-[4-(quinolin-2-ylmethoxy)phenyl]-pyridin-2(1H)-one at 11.04 mg/kg, po measured up to 8 hrs. The following applies: in vivo. Type of data set: ADME, organism-based. Also noted: dose 11.04 mg/kg, time < 8 hr, route oral.
In data set [18] the test system is Rattus norvegicus. In words: Cmax in Sprague Dawley rat assessed as 6-(2,4-Difluorophenyl)-5-[4-(quinolin-2-ylmethoxy)phenyl]-pyridin-2(1H)-one at 11.04 mg/kg, po measured up to 8 hrs. Type of data set: ADME, organism-based. To be noted: in vivo. Also noted: dose 11.04 mg/kg, route oral.
The nature of data set [19]: Drug level in intestinal microsomes (unknown origin) treated with 6-(4-Fluorophenyl)-5-[4-quinolin-2-ylmethoxy)phenyl]-pyridine-2(1H)-one incubated for 60 mins measured by LC-MS/MS analysis in presence of UDPGA. Type of data set: ADME, Intestine.
A short description of data set [20]: Drug level in liver microsomes (unknown origin) treated with 6-(4-Fluorophenyl)-5-[4-quinolin-2-ylmethoxy)phenyl]-pyridine-2(1H)-one incubated for 60 mins measured by LC-MS/MS analysis in presence of UDPGA. Type of data set: ADME. Background: Liver microsomes are vesicles of endoplasmic reticulum, rich in cytochrome P450 enzymes.

Molecules are shown by their SMILES.

The term Cmax denotes the maximum level reached in the sampled fluid or tissue. One may read the Tmax as the time at which the peak concentration occurs. Turning to `CC(=O)Oc1ccc(-c2ccc(OCc3ccc4ccccc4n3)cc2)c(-c2ccccc2)n1`, in the data set with Rattus norvegicus [1], the Cmax worked out at 372 ng/mL. Also, in the data set with Rattus norvegicus [2], the AUCt is 1497 ng·h/mL. In addition, the Tmax with Rattus norvegicus [3] was determined as 1 h.

As usually defined, the AUC is concentration integrated over time. In the case of `CC(=O)Oc1ccc(-c2ccc(OCc3ccc4ccccc4n3)cc2)c(-c2ccc(F)cc2)n1`, the AUC in the data set with Rattus norvegicus [4] came out at 492 ng·h/mL; in the data set on Canis familiaris [5] it was 841 ng·h/mL; with Canis familiaris [6], 555 ng·h/mL; in the data set on Cynomolgus monkey [8] it was 1314 ng·h/mL; in the data set on Cynomolgus monkey [15] it was 345 ng·h/mL. The Tmax with Cynomolgus monkey [7] came out at 6 h; in the data set with Canis familiaris [10], 1 h; in the data set with Rattus norvegicus [13], 1 h. In addition, the results for the Cmax with Canis familiaris [9], in the data set on Rattus norvegicus [11] and in the data set on Cynomolgus monkey [14] were 49 ng/mL, 372 ng/mL and 38 ng/mL, respectively. Also, the AUCt with Rattus norvegicus [12] was found to be 2436 ng·h/mL.

For `CC(=O)Oc1ccc(-c2ccc(OCc3ccc4ccccc4n3)cc2)c(-c2ccc(F)cc2F)n1`, the Tmax in the data set on Rattus norvegicus [16] is 2 h. Also, the AUCt in the data set on Rattus norvegicus [17] was found to be 1764 ng·h/mL. Besides, the Cmax in the data set with Rattus norvegicus [18] turned out to be 266 ng/mL.

Take `CN(C)C(=O)Oc1ccc(-c2ccc(OCc3ccc4ccccc4n3)cc2)c(-c2ccc(F)cc2)n1`: the Cmax in the data set on Rattus norvegicus [11] stood at 42 ng/mL. The AUCt with Rattus norvegicus [12] was determined as 182 ng·h/mL. For the same compound, the time to peak (Tmax) with Rattus norvegicus [13] turned out to be 1 h.

In the case of `O=C(O)[C@H]1O[C@@H](Oc2ccc(-c3ccc(OCc4ccc5ccccc5n4)cc3)c(-c3ccc(F)cc3)n2)[C@H](O)[C@@H](O)[C@@H]1O`, the Drug metabolism result in data set [19] and in data set [20] was “metabolite_detected” in each case.
